Here are results for four compounds from article PMC6467762 (ACS infectious diseases, 2018).

The structures appear in SMILES notation. “Also recorded” adds a separate entry of the source. Like-named read-outs stand apart in the source and are kept apart here. Bounds are passed on as bounds.

For one series, the system named is PfDHODH. As to conditions: cited from earlier work.
The next series concerns P. falciparum malaria. The note with it: cited from earlier work.
For series [1], the system named is P. falciparum Dd2 BSmut control. Kind of series: In vitro 72 h drug susceptibility assay, CRISPR/Cas9 study. Type of series: cell-based. The note with it: Plasmodium falciparum, DD2|DSM265, read-out: DSM265 EC50.
For series [2], the system named is P. falciparum Dd2 R2B (DHODH R265G). Kind of series: P. falciparum growth EC50 determination. The class given is cell-based. The note with it: Plasmodium falciparum, DD2|DSM265, read-out: DSM265 EC50.
The subject of the next series is P. falciparum. As to conditions: number of parasites; cited from earlier work.
The test system of the next series is P. falciparum Dd2 parent. Kind of series: In vitro 72 h drug susceptibility assay, CRISPR/Cas9 study. Type of series: cell-based. The note with it: Plasmodium falciparum, DD2|DSM265, read-out: DSM265 EC50.
The test system of series [3] is P. falciparum Dd2 R1BClA (DHODH L531F). Kind of series: P. falciparum growth EC50 determination. The note with it: Plasmodium falciparum, DD2|DSM265, read-out: DSM265 EC50. Type of series: cell-based.
In series [4] the test system is P. falciparum Dd2^Dhodh C276Y (CRISPR/Cas9-edited clones). Kind of series: In vitro 72 h drug susceptibility assay, CRISPR/Cas9 study. The note with it: Plasmodium falciparum, DD2|DSM265, read-out: DSM265 EC50. Type of series: cell-based.
The conditions of series [5]: neutral pH; cited from earlier work.
In series [6] the test system is P. falciparum Dd2 R3B (DHODH E182D). Kind of series: P. falciparum growth EC50 determination. The class given is cell-based. The note with it: Plasmodium falciparum, DD2|DSM265, read-out: DSM265 EC50.
The conditions of series [7]: single ascending dose (25–1200 mg), humans; cited from earlier work.
For series [8], the system named is P. falciparum Dd2 RIAClB (DHODH C276F). Kind of series: P. falciparum growth EC50 determination. The class given is cell-based. The note with it: Plasmodium falciparum, DD2|DSM265, read-out: DSM265 EC50.
Series [9] has as its system P. falciparum Dd2 R10ClB (DHODH G181C). Description: P. falciparum growth EC50 determination. The class given is cell-based. The note with it: Plasmodium falciparum, DD2|DSM265, read-out: DSM265 EC50.
The subject of the next series is P. falciparum Dd2 WT. Kind of series: microbe, parasite or virus in culture. Type of series: cell-based. The note with it: Plasmodium falciparum, DD2|DSM265, read-out: DSM265 EC50.
Series [10] deals with P. falciparum blood stage. As to conditions: humans; cited from earlier work.
For a further series, the system named is P. falciparum sporozoite. The note with it: cited from earlier work.
The subject of a further series is P. vivax. As to conditions: compared with P. falciparum; cited from earlier work.
The subject of series [11] is DSM265-resistant P. falciparum Dd2 parasites. Description: Drug sensitivity of DSM265-resistant Dd2 parasites. Type of series: cell-based, Plasmodium falciparum. As to conditions: DSM265-selected Dd2 mutant lines; values in Table S1 (not available).
The subject of series [12] is P. falciparum line from second round of DSM1 selections (increased dhodh copy number). The note with it: cited from earlier work.

Regarding `Cc1cc(Nc2ccc3ccccc3c2)n2ncnc2n1` [DSM1, 5-methyl-N-(naphthalen-2-yl)-[1,2,4]triazolo[1,5-a]pyrimidin-7-amine], in the series on PfDHODH, the Mode of inhibition result is listed as “competitive inhibitor of CoQ”.
Take `Cc1cc(Nc2ccc(S(F)(F)(F)(F)F)cc2)n2nc(C(C)(F)F)nc2n1` [DSM265, 2-(1,1-difluoroethyl)-5-methyl-[N-[4-(pentafluorosulfanyl)phenyl] 1,2,4]triazolo[1,5-a]pyrimidin-7-amine]: the Cure rate in the series with P. falciparum malaria (single dose of 250 mg) was 60%. In addition, the “Patients parasite free, extended 28-day endpoint” value with P. falciparum malaria (single dose of 400 mg) was 8/9. The EC50 in [1] amounted to 5.1 ± 0.31 nM; in [2], 150 ± 73 nM; in the series with P. falciparum Dd2 parent it was 4.8 ± 0.86 nM; in [3], 110 ± 17 nM; in [4], 120 ± 26 nM; in [6], 71 ± 13 nM. Also, the EC50 in series [8] was determined as 170 ± 55 nM; in [9], 150 ± 51 nM; in the series with P. falciparum Dd2 WT, 4.6 ± 1.1 nM. In addition, the “Minimum inoculum of resistance for the emergence of DSM265-resistant parasites” value with P. falciparum is on record as ≥ 10^5. For the same compound, in series [5], the Solubility limit is recorded as ~ 30 μM. In addition, the Safety entry in series [7] was “good safety”. The “Efficacy in blood stage human challenge study” value in series [10] is “demonstrating efficacy”. Also, the Protection from infection entry in the series with P. falciparum sporozoite (dosed 3 or 7 days before challenge) was “partial protection”; in the series on P. falciparum sporozoite (single dose of 400 mg given 1 day prior to challenge) it was “full protection”. Also, the “Efficacy against P. vivax” value with P. vivax is recorded as “lower”.
For `C[C@@H]1CC[C@H]2[C@@H](C)C(=O)O[C@@H]3O[C@@]4(C)CC[C@@H]1[C@]32OO4` [artemisinin], the “Sensitivity of DSM265-resistant parasites (EC50 vs parent Dd2)” value in [11] is reported as “fully sensitive; also recorded: retained full sensitivity”.
Regarding `O=C1C(O)=C([C@H]2CC[C@H](c3ccc(Cl)cc3)CC2)C(=O)c2ccccc21` [atovaquone], in [12], the “Sensitivity of DSM1-selected, dhodh-amplified cell line” value is “partial tolerance”. The “Sensitivity of DSM265-resistant parasites (EC50 vs parent Dd2)” value in series [11] was “retained full sensitivity; also recorded: fully sensitive”.

In general, EC50 refers to the concentration needed to bring the measured effect to its halfway point.
